Measurements published in patent US4231928A, “Antibacterial agents” (priority 1979, dated 1980).
Where two headings read alike, the source gives them in different places.

Columns and labels:
P. morganii = assay: Serial twofold agar dilution (Mueller-Hinton agar), P. morganii; type: cell-based
Method: (§1) The Minimum Inhibitory Concentrations (MIC) for sodium 6-[D-(-)-α-phenyl-α-(7-hydroxy-4-oxo-4H-pyrimido[1,2-b]pyridazin-3-ylcarboxamido)acetamido]penicillanate (BB-P598) and sulbenicillin were determined by the serial twofold agar dilution method using Steers' apparatus on Mueller-Hinton agar plates against 31 test organisms for the primary screening (Table 1) and also against 61 strains of Pseudomonas aeruginosa for the secondary evaluation (Table 2).
(§2) Minimum Inhibitory Concentrations (MIC) for sodium 6-[D-(-)-α-phenyl-α-(7-hydroxy-4-oxo-4H-pyrimido[1,2-b]pyridazin-3-ylcarboxamido)acetamido]pencillanate (BB-P598), sodium 6-[D-(-)-α-(4-hydroxyphenyl)-α-(7-hydroxy-4-oxo-4H-pyrimido[1,2-b]pyridazin-3-ylcarboxamido)acetamido]-penicillanate (BB-P642) and carbenicillin were determined by the serial twofold agar dilution method using Steers' apparatus on Mueller-Hinton agar plates against 31 tests organisms (Table 8) and also against 61 strains of Pseudomonas aeruginosa (Table 9). In terms of mean % relative activity compared with carbenicillin, compounds BB-B598 and BB-P642 were 856% and 1319% as active as carbenicillin against the 61 Pseudomonas strains of Table 9.

Pseudomonas aeruginosa = assay: Serial twofold agar dilution (Mueller-Hinton agar), P. aeruginosa; type: cell-based; details: for MIC: Pseudomonas aeruginosa
Method: as §1, §2

Structure (SMILES): CC1(C)S[C@@H]2[C@H](NC(=O)[C@H](NC(=O)c3cnc4ccc(O)nn4c3=O)c3ccccc3)C(=O)N2[C@H]1C(=O)O [BB-P598, sodium 6-[D-(-)-α-phenyl-α-(7-hydroxy-4-oxo-4H-pyrimido[1,2-b]pyridazin-3-ylcarboxamido)acetamido]penicillanate]
- MIC (P. morganii; Morganella morganii, P. morganii A9553, Table 8, read-out: MIC): > 100 µg/mL
- MIC (P. morganii; P. morganii A9553, Table 1): > 100 µg/mL
- Mean % relative activity (sulbenicillin = 100%) (Pseudomonas aeruginosa; 61 strains of P. aeruginosa, Table 2): 756%
- Mean % relative activity compared with carbenicillin (Pseudomonas aeruginosa; 61 strains of P. aeruginosa, Table 9): 856%
- MIC (Pseudomonas aeruginosa; 61 strains of P. aeruginosa, Table 2, read-out: Geometric mean of MIC): 4.2 µg/mL
- MIC (Pseudomonas aeruginosa; 61 strains of P. aeruginosa, Table 9, read-out: Geometric mean of MIC): 3.5 µg/mL
- MIC (Pseudomonas aeruginosa; ATCC19660, Pa-14 ATCC 19660 A20325, Mueller-Hinton agar, Table 9, read-out: MIC): 6.3 µg/mL
- MIC (Pseudomonas aeruginosa; GN315, Pa-27 GN315 A21294, Mueller-Hinton agar, Table 2, read-out: MIC): 3.1 µg/mL
- MIC (Pseudomonas aeruginosa; GN315, Pa-27 GN315 A21294, Mueller-Hinton agar, Table 9, read-out: MIC): 1.6 µg/mL
- MIC (Pseudomonas aeruginosa; GN4925, Pa-45 GN4925, Mueller-Hinton agar, Table 2, read-out: MIC): 6.3 µg/mL
- MIC (Pseudomonas aeruginosa; GN4925, Pa-45 GN 4925, Mueller-Hinton agar, Table 9, read-out: MIC): 6.3 µg/mL
- MIC (Pseudomonas aeruginosa; P. aeruginosa A9843, Mueller-Hinton agar, Table 1, read-out: MIC): 3.1 µg/mL
- MIC (Pseudomonas aeruginosa; P. aeruginosa A9843, Mueller-Hinton agar, Table 8, read-out: MIC): 3.1 µg/mL
- MIC (Pseudomonas aeruginosa; P. aeruginosa A9930, Mueller-Hinton agar, Table 1, read-out: MIC): 1.6 µg/mL
- MIC (Pseudomonas aeruginosa; P. aeruginosa A9930, Mueller-Hinton agar, Table 8, read-out: MIC): 1.6 µg/mL
- MIC (Pseudomonas aeruginosa; P. aeruginosa A15150, Mueller-Hinton agar, Table 1, read-out: MIC): 0.8 µg/mL
- MIC (Pseudomonas aeruginosa; P. aeruginosa A15150, Mueller-Hinton agar, Table 8, read-out: MIC): 1.6 µg/mL
- MIC (Pseudomonas aeruginosa; P. aeruginosa A20229, Mueller-Hinton agar, Table 1, read-out: MIC): 1.6 µg/mL
- MIC (Pseudomonas aeruginosa; P. aeruginosa A20717, Mueller-Hinton agar, Table 1, read-out: MIC): 6.3 µg/mL
- MIC (Pseudomonas aeruginosa; P. aeruginosa A20717, Mueller-Hinton agar, Table 8, read-out: MIC): 6.3 µg/mL
- MIC (Pseudomonas aeruginosa; Pa-1 D15, Mueller-Hinton agar, Table 2, read-out: MIC): 6.3 µg/mL
- MIC (Pseudomonas aeruginosa; Pa-1 D15, Mueller-Hinton agar, Table 9, read-out: MIC): 6.3 µg/mL
- MIC (Pseudomonas aeruginosa; Pa-2 V.A A9923, Mueller-Hinton agar, Table 9, read-out: MIC): 3.1 µg/mL
- MIC (Pseudomonas aeruginosa; Pa-2 VA A9923, Mueller-Hinton agar, Table 2, read-out: MIC): 3.1 µg/mL
- MIC (Pseudomonas aeruginosa; Pa-3 1449 V.A A9930, Mueller-Hinton agar, Table 9, read-out: MIC): 3.1 µg/mL
- MIC (Pseudomonas aeruginosa; Pa-3 1449VA A9930, Mueller-Hinton agar, Table 2, read-out: MIC): 1.6 µg/mL
- MIC (Pseudomonas aeruginosa; Pa-4 H9, D113 A21295, Mueller-Hinton agar, Table 9, read-out: MIC): 3.1 µg/mL
- MIC (Pseudomonas aeruginosa; Pa-4 H9 D113 A21295, Mueller-Hinton agar, Table 2, read-out: MIC): 6.3 µg/mL
- MIC (Pseudomonas aeruginosa; Pa-5 M4865, K.C A15150, Mueller-Hinton agar, Table 9, read-out: MIC): 1.6 µg/mL
- MIC (Pseudomonas aeruginosa; Pa-5 M4865KC A15150, Mueller-Hinton agar, Table 2, read-out: MIC): 3.1 µg/mL
- MIC (Pseudomonas aeruginosa; Pa-6 No. 5 A15194, Mueller-Hinton agar, Table 2, read-out: MIC): 25 µg/mL
- MIC (Pseudomonas aeruginosa; Pa-6 No. 5 Levitan A15194, Mueller-Hinton agar, Table 9, read-out: MIC): 12.5 µg/mL
- MIC (Pseudomonas aeruginosa; Pa-7 A9843, Mueller-Hinton agar, Table 2, read-out: MIC): 6.3 µg/mL
- MIC (Pseudomonas aeruginosa; Pa-10 A20479, Mueller-Hinton agar, Table 2, read-out: MIC): > 100 µg/mL
- MIC (Pseudomonas aeruginosa; Pa-10 A21479, Mueller-Hinton agar, Table 9, read-out: MIC): 100 µg/mL
- MIC (Pseudomonas aeruginosa; Pa-11 A20616, Mueller-Hinton agar, Table 2, read-out: MIC): 3.1 µg/mL
- MIC (Pseudomonas aeruginosa; Pa-11 A20616, Mueller-Hinton agar, Table 9, read-out: MIC): 6.3 µg/mL
- MIC (Pseudomonas aeruginosa; Pa-12 A20653, Mueller-Hinton agar, Table 2, read-out: MIC): 6.3 µg/mL
- MIC (Pseudomonas aeruginosa; Pa-12 A20653, Mueller-Hinton agar, Table 9, read-out: MIC): 6.3 µg/mL
- MIC (Pseudomonas aeruginosa; Pa-14 A20325, Mueller-Hinton agar, Table 2, read-out: MIC): 3.1 µg/mL
- MIC (Pseudomonas aeruginosa; Pa-15 A20717, Mueller-Hinton agar, Table 2, read-out: MIC): 6.3 µg/mL
- MIC (Pseudomonas aeruginosa; Pa-15 A20717, Mueller-Hinton agar, Table 9, read-out: MIC): 12.5 µg/mL
- MIC (Pseudomonas aeruginosa; Pa-16 #130 A20718, Mueller-Hinton agar, Table 2, read-out: MIC): 0.8 µg/mL
- MIC (Pseudomonas aeruginosa; Pa-16 #130 A20718, Mueller-Hinton agar, Table 9, read-out: MIC): 0.4 µg/mL
- MIC (Pseudomonas aeruginosa; Pa-17 H6, D114, Mueller-Hinton agar, Table 9, read-out: MIC): 1.6 µg/mL
- MIC (Pseudomonas aeruginosa; Pa-17 H6 D114, Mueller-Hinton agar, Table 2, read-out: MIC): 3.1 µg/mL
- MIC (Pseudomonas aeruginosa; Pa-18 H8, D121, Mueller-Hinton agar, Table 9, read-out: MIC): 1.6 µg/mL
- MIC (Pseudomonas aeruginosa; Pa-18 H8 D121, Mueller-Hinton agar, Table 2, read-out: MIC): 3.1 µg/mL
- MIC (Pseudomonas aeruginosa; Pa-19 A20229, Mueller-Hinton agar, Table 2, read-out: MIC): 1.6 µg/mL
- MIC (Pseudomonas aeruginosa; Pa-19 A20229, Mueller-Hinton agar, Table 9, read-out: MIC): 0.8 µg/mL
- MIC (Pseudomonas aeruginosa; Pa-20 A20325, Mueller-Hinton agar, Table 2, read-out: MIC): 6.3 µg/mL
- MIC (Pseudomonas aeruginosa; Pa-20 A20325, Mueller-Hinton agar, Table 9, read-out: MIC): 3.1 µg/mL
- MIC (Pseudomonas aeruginosa; Pa-21 A20601, Mueller-Hinton agar, Table 2, read-out: MIC): 3.1 µg/mL
- MIC (Pseudomonas aeruginosa; Pa-21 A20601, Mueller-Hinton agar, Table 9, read-out: MIC): 3.1 µg/mL
- MIC (Pseudomonas aeruginosa; Pa-23 A20741, Mueller-Hinton agar, Table 2, read-out: MIC): 6.3 µg/mL
- MIC (Pseudomonas aeruginosa; Pa-23 A20741, Mueller-Hinton agar, Table 9, read-out: MIC): 3.1 µg/mL
- MIC (Pseudomonas aeruginosa; Pa-24 A20896, Mueller-Hinton agar, Table 2, read-out: MIC): 25 µg/mL
- MIC (Pseudomonas aeruginosa; Pa-24 A20896, Mueller-Hinton agar, Table 9, read-out: MIC): 100 µg/mL
- MIC (Pseudomonas aeruginosa; Pa-25 A20897, Mueller-Hinton agar, Table 2, read-out: MIC): 1.6 µg/mL
- MIC (Pseudomonas aeruginosa; Pa-25 A20897, Mueller-Hinton agar, Table 9, read-out: MIC): 1.6 µg/mL
- MIC (Pseudomonas aeruginosa; Pa-26 PS32, Mueller-Hinton agar, Table 9, read-out: MIC): 25 µg/mL
- MIC (Pseudomonas aeruginosa; Pa-26 Ps32, Mueller-Hinton agar, Table 2, read-out: MIC): 1.6 µg/mL
- MIC (Pseudomonas aeruginosa; Pa-28 C.P.H. 10527/72, Mueller-Hinton agar, Table 9, read-out: MIC): 3.1 µg/mL
- MIC (Pseudomonas aeruginosa; Pa-28 CPH10527/72, Mueller-Hinton agar, Table 2, read-out: MIC): 6.3 µg/mL
- MIC (Pseudomonas aeruginosa; Pa-29 D122, Mueller-Hinton agar, Table 2, read-out: MIC): 3.1 µg/mL
- MIC (Pseudomonas aeruginosa; Pa-29 D122, Mueller-Hinton agar, Table 9, read-out: MIC): 3.1 µg/mL
- MIC (Pseudomonas aeruginosa; Pa-30 A20600, Mueller-Hinton agar, Table 2, read-out: MIC): 3.1 µg/mL
- MIC (Pseudomonas aeruginosa; Pa-30 A20600, Mueller-Hinton agar, Table 9, read-out: MIC): 1.6 µg/mL
- MIC (Pseudomonas aeruginosa; Pa-31 A20594, Mueller-Hinton agar, Table 2, read-out: MIC): 0.8 µg/mL
- MIC (Pseudomonas aeruginosa; Pa-31 A20594, Mueller-Hinton agar, Table 9, read-out: MIC): 1.6 µg/mL
- MIC (Pseudomonas aeruginosa; Pa-32 A20595, Mueller-Hinton agar, Table 2, read-out: MIC): 3.1 µg/mL
- MIC (Pseudomonas aeruginosa; Pa-32 A20595, Mueller-Hinton agar, Table 9, read-out: MIC): 3.1 µg/mL
- MIC (Pseudomonas aeruginosa; Pa-33 A20598, Mueller-Hinton agar, Table 2, read-out: MIC): 12.5 µg/mL
- MIC (Pseudomonas aeruginosa; Pa-33 A20598, Mueller-Hinton agar, Table 9, read-out: MIC): 1.6 µg/mL
- MIC (Pseudomonas aeruginosa; Pa-34 A20603, Mueller-Hinton agar, Table 2, read-out: MIC): 3.1 µg/mL
- MIC (Pseudomonas aeruginosa; Pa-34 A20603, Mueller-Hinton agar, Table 9, read-out: MIC): 1.6 µg/mL
- MIC (Pseudomonas aeruginosa; Pa-35, Mueller-Hinton agar, Table 2, read-out: MIC): 12.5 µg/mL
- MIC (Pseudomonas aeruginosa; Pa-35, Mueller-Hinton agar, Table 9, read-out: MIC): 6.3 µg/mL
- MIC (Pseudomonas aeruginosa; Pa-36, Mueller-Hinton agar, Table 2, read-out: MIC): 0.4 µg/mL
- MIC (Pseudomonas aeruginosa; Pa-36, Mueller-Hinton agar, Table 9, read-out: MIC): < 0.2 µg/mL
- MIC (Pseudomonas aeruginosa; Pa-37 A20130, Mueller-Hinton agar, Table 2, read-out: MIC): 3.1 µg/mL
- MIC (Pseudomonas aeruginosa; Pa-37 A20130, Mueller-Hinton agar, Table 9, read-out: MIC): 3.1 µg/mL
- MIC (Pseudomonas aeruginosa; Pa-38 A20349, Mueller-Hinton agar, Table 2, read-out: MIC): 6.3 µg/mL
- MIC (Pseudomonas aeruginosa; Pa-38 A20349, Mueller-Hinton agar, Table 9, read-out: MIC): 12.5 µg/mL
- MIC (Pseudomonas aeruginosa; Pa-39 A20641, Mueller-Hinton agar, Table 2, read-out: MIC): 3.1 µg/mL
- MIC (Pseudomonas aeruginosa; Pa-39 A20641, Mueller-Hinton agar, Table 9, read-out: MIC): 1.6 µg/mL
- MIC (Pseudomonas aeruginosa; Pa-41 A21227, Mueller-Hinton agar, Table 2, read-out: MIC): 3.1 µg/mL
- MIC (Pseudomonas aeruginosa; Pa-41 A21227, Mueller-Hinton agar, Table 9, read-out: MIC): 3.1 µg/mL
- MIC (Pseudomonas aeruginosa; Pa-42 A21229, Mueller-Hinton agar, Table 2, read-out: MIC): 25 µg/mL
- MIC (Pseudomonas aeruginosa; Pa-42 A21229, Mueller-Hinton agar, Table 9, read-out: MIC): 6.3 µg/mL
- MIC (Pseudomonas aeruginosa; Pa-43 A21233, Mueller-Hinton agar, Table 2, read-out: MIC): 3.1 µg/mL
- MIC (Pseudomonas aeruginosa; Pa-43 A21233, Mueller-Hinton agar, Table 9, read-out: MIC): 3.1 µg/mL
